According to US6897200B1, “Oligonucleotide delivery systems for camptothecins” (University of Kentucky Research Foundation, priority 1998, dated 2005):

How the values were obtained:
[1] = system: dsDNA oligonucleotide d(CGTACG); test: NMR titration / 2D-NOESY of drug with d(CGTACG); conditions: drug:DNA ratios of 1:1, 2:1 and 3:1
[2] = system: dsDNA oligonucleotide (dG-dC)15; test: Lactone ring hydrolysis in PBS in the presence of (dG-dC)15 (reversed-phase HPLC); conditions: for % Lactose at Equilibrium: pH 7.4, 10 uM drug; for Lactone levels following three hours of incubation: (dG-dC)15 ~30 mM base, PBS pH 7.4, room temperature
[3] = system: dsDNA oligonucleotide (dA-dT)15; test: Lactone ring hydrolysis in PBS in the presence of (dA-dT)15 (reversed-phase HPLC); conditions: for % Lactose at Equilibrium: pH 7.4, 10 uM drug; for Lactone levels following three hours of incubation: (dA-dT)15 ~30 mM base, PBS pH 7.4, room temperature
[4] = system: duplex DNA oligonucleotides (dG-dC)15 or (dA-dT)15; test: UV absorption spectra of drug lactone with duplex DNA oligonucleotides; conditions: for DNA sequence preference (UV and HPLC data): (dG-dC)15 versus (dA-dT)15; for UV spectral change in the presence of DNA: PBS pH 5, 10 μM drug, (dG-dC)15 16 mM base or (dA-dT)15 24 mM base
[5] = system: dsDNA; test: Relactonization of carboxylate forms in dsDNA solutions (HPLC); conditions: ~30 mM base dsDNA in PBS, room temperature, after 30 hrs
[6] = Lactone ring hydrolysis in PBS in the absence of DNA (reversed-phase HPLC); conditions: for % Lactose at Equilibrium: PBS buffer, pH 7.4, 10 uM drug; for percent lactone at equilibrium: absence of DNA, 10 μM, incubated 3 hours, PBS pH 7.4, room temperature
[7] = system: single-strand DNA (ssDNA) (dT)30; test: Lactone stability in the presence of single-strand DNA (HPLC); assay type: physicochemical; conditions: ~33 mM base (dT)30; dsDNA 10- to 100-fold more dilute gives approximately equal stabilization
From the text: Note how the presence of DNA markedly stabilizes the biologically-active form of the camptothecins drugs. […] . But it is clear from our work that camptothecin drugs can interact with ssDNA as well as RNA (see FIGS. 4 through 7) and these interactions stabilize the biologically-active lactone forms of these agents.

[8] = system: double-stranded DNA (dsDNA); test: Fluorescence emission spectra of SN-38 lactone with DNA; assay type: binding; conditions: SN-38 lactone 1 μM, spectra within 2 min
Experimental: FIG. 8 depicts the marked shifting of the fluorescence emission spectra of SN-38 lactone (1 μM final concentration) in the presence of double-stranded DNA (dsDNA). SN38 contains a 10-hydroxy-nctionality which results in the molecule having a fluorescence emission which is highly sensitive to the presence of water in the surrounding microenvironment. […] Note how the agent fluoresces in the 410 nm to 460 nm region when water is not present, but fluoresces at 520 to 530 nm when water is present. […] The fluorophore was directly added to the DNA solution and the spectra recorded immediately (within 2 min.) prior to any significant conversion of the agent to carboxylate form.
To gain mechanistic insight into why the stabilization occurs, fluorescence spectroscopic scans of SN-38 lactone in the presence and absence of DNA were recorded.
Our results thus provide the first evidence that duplex DNA devoid of TopoI may play a functional role in the biological activities of the camptothecin drugs through the promotion of active lactone levels within the cell nucleus. […] The DNA-associated drugs are likely to be in their active lactone forms and ready for the subsequent drug-DNA-enzyme complex formation.

[9] = system: RNA (total RNA from yeast); test: Stability of topotecan lactone in the presence of RNA (reversed-phase HPLC); assay type: physicochemical; conditions: 1 μM topotecan
Experimental: FIG. 4 depicts the stability of topotecan in the presence of various concentrations of RNA at 22° C. In these experiments, topotecan (at a final concentration of 1 μM) was incubated in PBS, pH 7.4 in the presence of various concentrations of RNA (total RNA from yeast) for 30 min at 22° C. and analyzed for the fraction of lactone present by reversed-phase HPLC. […] As an example, in the presence of 7.5 mg/ml of RNA there exists a 10% greater amount of the lactone form than found in the absence of RNA.
FIG. 5. Stability of topotecan in the presence of various concentrations of RNA at 37° C. Topotecan (1 μM final concentration) was incubated in PBS, pH 7.4 in the presence of various concentrations of RNA (total RNA from yeast) for 30 min at 37° C. and analyzed for the fraction of lactone present by reversed-phase HPLC. At a RNA concentration of 7.5 mg/ml, 12% more of the lactone form of topotecan is present.
(§1) FIG. 6 represents a comparison of the stability of topotecan in the presence and absence of RNA at 22° C. Topotecan (1 μM final concentration) was incubated in PBS, pH 7.4 either alone (filled circles) or in the presence of 10 mg/ml of RNA (open circles) at 22° C. and analyzed for the fraction of lactone present at different times by reversed-phase HPLC.
as §1, with “7” for “6”, “37°” for “22°”, “in the absence” for “alone”

greater amount of the lactone form than in the absence of RNA ([9]; 7.5 mg/ml RNA, PBS pH 7.4, 30 min, 22 °C)	more of the lactone form present than without RNA ([9]; 7.5 mg/ml RNA, PBS pH 7.4, 30 min, 37 °C)	more of the lactone form present than without RNA ([9]; 10 mg/ml RNA, PBS pH 7.4, after 3 hrs, 22 °C)	more of the lactone form present than without RNA ([9]; 10 mg/ml RNA, PBS pH 7.4, after 3 hrs, 37 °C)	SMILES	drug binding to DNA (2D-NOESY) [1]	% Lactose at Equilibrium ([2]; (dG-dC)15, 22 °C)	% Lactose at Equilibrium ([2]; (dG-dC)15, 37 °C)	Lactone levels following three hours of incubation [2]	% Lactose at Equilibrium ([3]; (dA-dT)15, 22 °C)	% Lactose at Equilibrium ([3]; (dA-dT)15, 37 °C)	Lactone levels following three hours of incubation [3]	DNA sequence preference (UV and HPLC data) [4]	UV spectral change in the presence of DNA [4]	active lactone level after relactonization of pure carboxylate form [5]	% Lactose at Equilibrium ([6]; 22 °C)	% Lactose at Equilibrium ([6]; 37 °C)	percent lactone at equilibrium [6]	effect of ssDNA on lactone stabilization (versus dsDNA) [7]	direct binding of lactone form to DNA (fluorescence spectral shift) [8]
–	–	–	–	CCc1c2c(nc3ccc(OC(=O)N4CCC(N5CCCCC5)CC4)cc13)-c1cc3c(c(=O)n1C2)COC(=O)[C@]3(O)CC [CPT-11]	clearly consistent with drug binding to DNA	−50%	30 ± 2%	95%	−50%	29 ± 2%	95%	no signs of any sequence preference	substantial hypochromic and red spectral shift	~30%	17 ± 1%	8 ± 2%	24%	significantly diminished effects on stabilizing	–
–	–	–	–	CCc1c2c(nc3ccc(O)cc13)-c1cc3c(c(=O)n1C2)COC(=O)[C@]3(O)CC [SN-38, 7-ethyl-10-hydroxycamptothecin]	–	–	–	–	–	–	–	–	–	–	–	–	–	–	binds the DNA
10%	12%	25%	15%	CC[C@@]1(O)C(=O)OCc2c1cc1n(c2=O)Cc2cc3c(CN(C)C)c(O)ccc3nc2-1 [TPT, topotecan]	clearly consistent with drug binding to DNA	−50%	26 ± 2%	95%	−50%	19 ± 2%	78%	sequence preference of (dG-dC)15 over (dA-dT)15	substantial hypochromic and red spectral shift	~30%	15 ± 1%	10 ± 1%	12%	significantly diminished effects on stabilizing	–
–	–	–	–	CC[C@@]1(O)C(=O)OCc2c1cc1n(c2=O)Cc2cc3ccccc3nc2-1 [camptothecin]	–	–	–	above 80%	–	–	–	–	–	–	–	–	–	–	–
